Laboratory results reported in the METLIN SMRT retention time set (Domingo-Almenara et al. 2019).

Assay: gradient 5% acetonitrile 3 min, to 50% in 2 min, to 85% in 15 min, held 3 min, 100 µL/min
Settings: column: Zorbax Extend-C18 2.1 x 50 mm; eluents: water / acetonitrile, 0.1% formic acid
Procedure, shortened: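 Pure standards were analyzed in mixtures of ~100 molecules using HPLC coupled to a quadrupole time-of-flight mass spectrometer, in both positive and negative ionization mode. Separation used a Zorbax Extend-C18 column (2.1 × 50 mm, 1.8 μm) at 100 μL/min, with water and acetonitrile each containing 0.1% formic acid. Dead and dwell volumes were 40 μL and 900 μL, and data were collected over 3 months. Retention time was read from computationally picked adduct peaks, each inspected manually.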

Row | RP-LC retention time [s] | Compound
1 | 598 | CN(C)CCNC(=O)Cc1cccn1-c1ccc(F)cc1
2 | 934 | COc1ccc(-c2nnc(COc3ccc(NC(=O)c4ccc(Br)o4)cc3)o2)cc1
3 | 1180 | O=C(COc1ccc2ccccc2c1)Nc1nc(-c2ccccc2)cs1
4 | 748 | COc1ccc(CN2CN=C(Nc3nc(C)c4cc(OC)ccc4n3)NC2)cc1
5 | 970 | Cc1cc2nc(C(=O)Nc3cccc(F)c3)cc(C)n2n1
6 | 938 | COc1ccc2[nH]cc(CCNC(=O)c3ccccc3NC(=O)C3=C(C)OCCS3)c2c1
7 | 610 | NC1(C(=O)N[C@@H](CCO)c2ccc(Cl)cc2)CCN(c2ncnc3[nH]ccc23)CC1
8 | 880 | Cc1ccc(S(=O)(=O)N2CCc3nn(CC(C)C)c(=O)n3CC2)cc1Cl
9 | 1420 | CCn1nccc1-c1cccc(-c2noc(-c3ccc(C)c(C)c3)n2)c1
10 | 920 | c1cc2nnc(C3CCC3)n2nc1N1CCCC1
11 | 607 | CC(=O)N1CCN(c2ncc(C(=O)Nc3ccccc3)c(N)n2)CC1
12 | 733 | Cc1ccccc1Nc1c(-c2ccccc2)nc2c(C)cccn12
13 | 785 | COc1ccc(OC)c(NC(=O)c2c(N3CCCC3=O)c3cc(F)ccc3n2C)c1
14 | 725 | COC(=O)c1cccc(NC(=O)C2CC(=O)N(c3ccccc3)C2)c1 (stereo not given)
15 | 838 | CCc1nc2cc(N3CCC(C(=O)NCc4cc(F)cc(F)c4)CC3)cnc2nc1CC
16 | 740 | CCN1c2ccccc2C(=O)NC12CCN(C(=O)NCc1cccc(F)c1)CC2
17 | 1040 | CC(C)(C)c1cc(N2CCN(c3ccccn3)CC2)n2ncc(-c3ccccc3)c2n1
18 | 515 | Cn1c(SCCC(=O)O)nnc1-c1cccnc1
19 | 557 | CCC(C)NC(=O)N1CCNC(=O)C1 (stereo not given)
20 | 967 | CCOc1ccc(NC(=O)C2CCCN2S(=O)(=O)c2ccc(OCC)cc2)cc1 (stereo not given)
21 | 900 | Cc1nc2c(NC(=O)c3ccc(C(F)(F)F)s3)cccn2n1
22 | 564 | O=C(O)Cn1c(-c2cccnc2)nc2ccccc21
23 | 973 | CCOC(=O)C1CCN(C(=O)c2cc(-c3ccc(C)c(C)c3)[nH]c2C)CC1

Row | RP-LC retention time [s] | Compound
24 | 784 | CCOc1ccc(CNC(=O)C2CCCN(c3ncnc4c3oc3ccccc34)C2)cc1 (stereo not given)
25 | 614 | CC1CCCN(CCCNC(=O)CCCN2C(=O)CCn3nc(-c4cccn4C)cc32)C1 (stereo not given)
26 | 1100 | O=S(=O)(c1ccccc1Cl)N1CCc2nc(-c3ccc(F)cc3)ncc2C1
27 | 620 | CCCN1CCN(C(=O)C(C)C2CCN(C(=O)c3[nH]c(C)c(C(=O)OCC)c3C)CC2)CC1 (stereo not given)
28 | 869 | Cn1cc(-c2cc3n(n2)CCCN3C(=O)CCC(=O)NC2CCCCCC2)c2ccccc21
29 | 799 | CCN(CC)C(=O)c1c2c(cn(-c3ccc(C)cc3)c1=O)C(=O)CC(C)(C)C2
30 | 653 | O=C(NC1CC1)c1[nH]c2ccccc2c1N1CCCC1=O
31 | 665 | O=C(Cn1cnc2nc(N3CCC(C(=O)NC4CC4)CC3)sc2c1=O)Nc1ccccc1Cl
32 | 593 | Cn1cc(CC(=O)NCC2CC2)c2cccnc21
33 | 609 | CSc1ccccc1NC(=O)c1ccc(-n2cccn2)nn1
34 | 797 | Cc1ccc(NC(=O)CN2C(=O)CCc3cc(S(=O)(=O)N4CCCCC4C)ccc32)cc1 (stereo not given)
35 | 968 | Cc1sc(NC(=O)c2ccc(Cl)cc2)nc1-c1ccc2c(c1)NC(=O)C(C)O2 (stereo not given)
36 | 559 | CN1CCC(N2CCN(C(=O)CCc3cn(C)nc3-c3ccc(F)cc3)CC2)CC1
37 | 799 | CCCn1cc(CCNC(=O)Cc2cccc(Cl)c2)c2cccnc21
38 | 772 | Cn1cc(S(=O)(=O)N2CCC(C(=O)NCc3ccc(Cl)cc3)CC2)cc1C(=O)N1CCCC1
39 | 600 | CCCN1CCC(c2cccc(S(C)(=O)=O)c2)CC1
40 | 1000 | COc1ccccc1C1(CNS(=O)(=O)c2ccc3c(c2)CCCC3)CCOCC1
41 | 602 | CCCNC(=O)C1CCN(c2ccc(SCC(=O)NCc3cccs3)nn2)CC1
42 | 774 | O=S(=O)(c1cc(-c2nnc(C3CC3)o2)co1)N1CCCC1
43 | 797 | Cc1ccc(-c2nc3cccc(C)n3c2Nc2ccccc2C)cc1
44 | 757 | Cc1nc(C)c(C(=O)NCC23CCC=C2N(CC2CC2)C(=O)CC3)s1 (stereo not given)
45 | 724 | COCCOc1ccc2c(n1)CCN(C(=O)NC1CCCC1)C2
46 | 958 | COc1cc(NC(=O)c2cc3c(n(-c4ccc(F)cc4)c2=O)CCCC3=O)cc(OC)c1

Row | RP-LC retention time [s] | Compound
47 | 622 | CC(C)n1c(CC2CCN(C(=O)c3ccccc3Cl)C2)nc2cccnc21 (stereo not given)
48 | 839 | CC(=O)c1cccc(NS(=O)(=O)c2ccc(F)c(Cl)c2)c1
49 | 731 | Cc1noc(C)c1CCNC(=O)c1ccc2ccnc(N3CCN(c4ccc(F)cc4)CC3)c2c1
50 | 1080 | COc1ccc(-c2noc(-c3nc(-c4ccc(OC)c(OC)c4)no3)n2)cc1OC
51 | 616 | COCc1ccc(C(=O)Nc2ccnc3ccc(Cl)cc23)o1
52 | 1000 | O=c1ccc(-c2ccc(Cl)cc2)nn1CCc1nc(-c2cccs2)no1
53 | 736 | COc1ccc(-c2nc3cc(C)ccn3c2NC(=O)c2ccc(Cl)c([N+](=O)[O-])c2)cc1
54 | 952 | CC1CN(C(=O)CSc2nc(-c3ccco3)cc(C(F)(F)F)n2)CC(C)O1 (stereo not given)
55 | 658 | CCOC(=O)c1ccc2nc(C(F)(F)F)nc(NCCCN3CCOCC3)c2c1
56 | 1070 | CCn1c(=O)c2ccccc2n(Cc2nc(-c3cccc(C)c3)no2)c1=O
57 | 931 | CC(NC(=O)c1csc(C(=O)NC2CCCC2)n1)c1ccc(F)cc1 (stereo not given)
58 | 638 | COc1ccc(CC(=O)Nc2nc3c(s2)COCC3)cc1OC
59 | 883 | COC(=O)c1cc(S(=O)(=O)N2CCCC2C(=O)Nc2cccc(F)c2)cn1C (stereo not given)
60 | 696 | O=S(=O)(c1ccc(-c2nnc(C3CCCC3)o2)o1)N1CCN(C2CCCCC2)CC1
61 | 845 | COCCN(CC(=O)N1CCc2sccc2C1COc1ccccc1OC)C(=O)C(C)C (stereo not given)
62 | 671 | CC(C)(C)n1nnnc1C1CC2(CCOCC2)C(=O)N1Cc1ccc(F)cc1Cl (stereo not given)
63 | 746 | Cn1c(C(=O)NCCCN2CCCCC2)cc2c(-c3cccs3)nn(-c3ccccc3)c21
64 | 785 | CN(c1ccccc1)c1nc(=O)n(CC(=O)Nc2ccc3c(c2)OCCO3)c2ccccc12
65 | 731 | CC(=O)c1cccc(NC(=O)CCc2c(C)nn(-c3cc(N(C)C)ncn3)c2C)c1
66 | 866 | CCc1noc(NC(C)=O)c1-c1ccc(C)c(S(=O)(=O)Nc2ccc(Cl)cc2F)c1
67 | 745 | Cc1cc(F)ccc1NC(=O)C1CCCN1S(=O)(=O)c1cc2c(cc1Cl)NC(=O)CO2 (stereo not given)
68 | 622 | CCn1c(CCNC(=O)c2ccc(OC)c(F)c2)nc2cccnc21
69 | 887 | CCN1C(=O)c2cc(C(=O)Nc3cccc(Cl)c3)nn2CC1(C)C(=O)NC1CCCC1 (stereo not given)

Row | RP-LC retention time [s] | Compound
70 | 709 | O=C(c1cc2ccccc2o1)N1CC(c2nc(-c3cccnc3)no2)C1
71 | 561 | CC(C)C(=O)NCCN1CCN(c2ccc(F)cc2)CC1
72 | 836 | CC(C)CC(C)NC(=O)c1ccc(CN2C(=O)C3CCCN3C(=O)c3ccccc32)cc1 (stereo not given)
73 | 1100 | COc1ccccc1-c1nnc(-c2ccc(C)c(S(=O)(=O)N3CCCCCC3)c2)o1
74 | 992 | O=C1[C@H]2CN(Cc3cccc(Cl)c3F)C[C@H]2C(=O)N1CCc1ccccc1
75 | 659 | CCCN(Cc1ccc(F)cc1)Cc1cc(=O)n2cc(Cl)ccc2n1
76 | 1170 | Cc1cc(C)cc(N2C(=O)C3N=NN(c4ccc(C)c(Cl)c4)C3C2=O)c1 (stereo not given)
77 | 674 | CNC(=O)CSc1nnc(N2CCN(C(=O)c3cc(-c4ccccc4)on3)CC2)s1
78 | 1160 | CCCNC(=O)C1CCN(c2ccc(SCC(=O)Nc3ccc(C)cc3Cl)nn2)CC1
79 | 1090 | Cc1csc(-c2csc(S(=O)(=O)N(C)Cc3ccccc3)c2)n1
80 | 591 | CC(C)C(NC(=O)c1ccc([N+](=O)[O-])cc1)c1nc2ccccc2[nH]1 (stereo not given)
81 | 809 | COC(=O)c1c(NCCc2c[nH]c3ccccc23)c2cc(Cl)ccc2[nH]c1=O
82 | 699 | CCOC(=O)C1CCN(C(=O)Cn2c(=O)oc3ccc(C(=O)N4CCCC4)cc32)CC1
83 | 909 | CCCc1cc(C2CCCN2C(=O)Cc2ccc(OC)cc2)no1 (stereo not given)
84 | 591 | CCOc1ccc2ncc(C(=O)c3ccccc3)c(N3CCN(CC)CC3)c2c1
85 | 954 | COc1ccc(C(=O)Nc2nnc(SCc3ccccc3Cl)s2)cc1OC
86 | 775 | O=C(Nc1cccc2nsnc12)C1CCN(S(=O)(=O)N2CCOCC2)CC1
87 | 653 | COC(=O)C(N)Cc1ccc(Cl)cc1 (stereo not given)
88 | 758 | Cc1cc(N(C)C)nc(N2CCN(C(=O)c3ccc(-c4ccccc4)cc3)CC2)n1
89 | 994 | Cc1c(-c2noc(-c3ccc(F)cc3)n2)nnn1-c1ccccc1
90 | 1230 | Cc1ccc(-c2coc(-c3ccc(NC(=O)c4ccc(Br)o4)cc3)n2)cc1
